{"source": "patent US9157062B2", "about": "“Compositions and methods for promoting the generation of PDX1+ pancreatic cells” (President and Fellows of Harvard College, priority 2008, dated 2015)", "key": {"HUES8 cells": {"system": "HUES8 cells", "test": "Differentiation of HUES8 cells to definitive endoderm (Sox17 immunostaining)", "type": "cell-based, human", "settings": "300 nM ILV, 3 days, in the presence or absence of Wnt3a/Activin", "method": "ILV was next tested at different steps of the hESC differentiation process (see FIG. 1a). ILV was tested on the differentiation of HUES8 cells to definitive endoderm population, which was assessed by immunostaining with Sox17 antibody.\nSecondly, ILV was examined on the definitive endoderm population containing 70% Sox17^+ cells derived from HUES8 by Wnt3a/Activin treatment (D'Amour et al., 2006). […] Thus, ILV functions by inducing pancreatic specification of hESC-derived definitive endoderm population."}, "[1]": {"system": "mouse ESC-derived definitive endoderm with Pdx1-GFP reporter", "test": "Pancreatic differentiation of mESC-derived definitive endoderm (Pdx1-GFP reporter)", "type": "cell-based", "settings": "300 nM ILV", "method": "Mouse embryonic stem cells (mESCs) with Pdx1-GFP reporter are routinely cultured on irradiated CF-1 MEF feeder cells in KnockOut DMEM (Invitrogen) supplemented with 15% FBS (Hyclone), 2 mM L-Glu, 1.1 mM 2-mercaptoethanol, 1 mM nonessential amino acids, 1×PS and 10^3 unit LIF (Chemicon). Cells are passaged at the ratio of 1:12 every 3 days by using 0.25% trypsin-EDTA (Invitrogen).\nTo generate a definitive endoderm population, mESCs were plated on gelatin-coated surface at 2500 cell/cm^2 after depletion of MEF feeder cells. Then, the cells were treated with 1000 ng/ml recombinant mouse Nodal (R&D systems) in A-RPMI supplemented with 1×L-Glu, 1×L-PS and 0.2% FBS for 5 days. […]\n(§1) Total RNAs were extracted with the RNeasy Mini Kit (Qiagen) and reverse-transcribed using SuperScript III RT-PCR system (Invitrogen) according to the manufacturer's protocol. One microliter of cDNA sample was PCR amplified with QuantiFast SYBR Green PCR Kit (Qiagen) and analyzed with DNA engine Opticon2 (MJ Research).\nTo determine whether ILV functions on other species, the effect of ILV on a population of mouse ESCs (mESCs) that have been induced to form definitive endoderm was examined. […] The increase of Pdx1 expression can be further confirmed with immunostaining (FIG. 3b) and quantitative RT-PCR (qRT-PCR, FIG. 3c). […]"}, "[2]": {"system": "hESC-derived population (Pdx1+ cells)", "test": "ILV titration and test on other hESC lines, Pdx1+ cells", "type": "cell-based, human", "method": "To generate a starting population, HUES cells were cultured on MEF feeder cells until 80-90% confluent, then treated with 25 ng/ml Wnt3a (R&D systems)+100 ng/ml Activin A (R&D systems) in advanced RPMI (A-RPMI, Invitrogen) supplemented with 1×L-Glu and 1×PS for 1 day, and then 100 ng/ml Activin A in A-RPMI supplemented with 1×L-Glu, 1×PS and 0.2% FBS (Invitrogen). Two days later, the media was changed to 50 ng/ml FGF10 (R&D systems)+0.25 μM KAAD-CYC (Calbiochem) in A-RPMI supplemented with 1×L-Glu, 1×PS and 2% FBS and maintained for additional 2 days. Cells were then transferred to 50 ng/ml FGF10+0.25 μM KAAD-CYC+2 μM RA (Sigma) in DMEM supplemented with 1×L-Glu, 1×PS, 1×B27 (Invitrogen) and cultured for an additional 4 days. ILV was obtained from Axxora, KAAD-CYC, TPB, PMA, BISI, Gö 6983, U0126 and PD98059 were obtained from Calbiochem and RA were obtained from Sigma.\n(§2) Cells were fixed with 10% formalin solution (Sigma) for 20 min at room temperature. Immunostaining was carried out with standard protocols. The following primary antibodies were used: goat anti-Pdx1 (1:500; R&D system); rabbit anti-FOXA2 (1:500; Upstate); rabbit anti-HNF6 (1:200; Santa Cruz Biotech); guinea pig anti-insulin (1:1000; Dako); rabbit anti-c-peptide (1:500; Linco); rabbit anti-amylase (1:200, Sigma); goat anti-HNF1β (1:100, Santa Cruz Biotech); and biotinylated DBA (1:400; Vector Lab). Alexa-488-, Alexa-555, and Alexa-647-conjugated donkey antibodies against mouse, rabbit, guinea pig and goat, and Pacific Blue conjugate-streptavidin (Invitrogen) were used at 1:300 dilution.\nAdditional experiments were carried out to optimize treatment to obtain more Pdx1^+ cells. […] Secondly, since hESC lines vary in their differentiation potentials (Osafune et al., 2008), ILV was tested on other hESC lines and shown to be effective on HUES 2, 4 and 8. After 4 days treatment with ILV, 26.9±2.8% cells of HUES8-derived population are positively stained by Pdx1 antibody (FIG. 2b), making it the most responsive of the lines tested."}, "HUES8-derived population": {"system": "HUES8-derived population", "test": "Pancreatic lineage markers in ILV-treated population (immunocytochemistry, qRT-PCR)", "type": "cell-based, human", "method": "as §1, §2\nTo further characterize the cells induced by ILV, beyond Pdx1^+ expression, multiple pancreatic lineage markers were examined by immunocytochemistry and qRT-PCR. More than 96% of the Pdx1^+ cells following ILV treatment show significant expression of other pancreatic progenitor markers, including FOXA2 and HNF6 (FIG. 4a). After ILV treatment, Pdx1, HNF6, Ptfla, Sox9, FOXA2 mRNAs level increase (FIG. 4b)."}}, "data": [{"substance": "(−)-Indolactam V [ILV]", "values": [{"measurement": "differentiation to definitive endoderm (Sox17) versus DMSO control", "setting": "HUES8 cells", "value": "no detectable difference"}, {"measurement": "percentage of GFP+ cells", "setting": "[1]; 6 days", "value": "50.0±6.1", "unit": "%"}, {"measurement": "expression of mRNAs of pancreatic markers (Pdx1, Cdcp1, Ptfla, HNF6, FOXA2, Nkx2.2)", "setting": "[1]; qRT-PCR", "value": "increase"}, {"measurement": "effect on other hESC lines", "setting": "[2]; HUES 2, 4 and 8", "value": "effective"}, {"measurement": "toxicity", "setting": "[2]; at 300 nM", "value": "no detectable toxicity"}, {"measurement": "concentration of highest efficiency", "setting": "[2]; titration of ILV from 20 nM to 5 μM", "value": 300, "unit": "nM"}, {"measurement": "EC50", "setting": "[2]; titration of ILV from 20 nM to 5 μM, read-out: EC50 (dose-dependent increase of Pdx1+ cells)", "value": 142, "unit": "nM"}, {"measurement": "Pdx1, HNF6, Ptfla, Sox9, FOXA2 mRNAs level", "setting": "HUES8-derived population; 300 nM ILV, 4 days, qRT-PCR", "value": "increase"}, {"measurement": "endocrine progenitor markers Nkx2.2, Ngn3 and Nkx6.1", "setting": "HUES8-derived population; 300 nM ILV, 4 days, qRT-PCR", "value": "upregulated"}, {"measurement": "share of Pdx1+ cells with significant expression of FOXA2 and HNF6", "setting": "HUES8-derived population; after ILV treatment, immunocytochemistry", "value": "More than 96%"}]}]}
